In PubChem BioAssay (NCI):
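96-well plates; 48 h exposure; 5 concentrations. Endpoints by linear interpolation between flanking doses. Not reached: highest tested concentration assigned. GI50 is the concentration that inhibits growth by half. Definition used: TGI = concentration required for complete inhibition of growth.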

Experiments:
Assay in all cases: DTP human tumour cell line panel, 48 h
SK-MEL-5 melanoma = tested on: SK-MEL-5 melanoma
K-562 leukemia = tested on: K-562 leukemia
CAKI-1 renal = tested on: CAKI-1 renal
UACC-62 melanoma = tested on: UACC-62 melanoma
U251 CNS = tested on: U251 CNS
HCC-2998 colon = tested on: HCC-2998 colon
SNB-75 CNS = tested on: SNB-75 CNS
OVCAR-8 ovarian = tested on: OVCAR-8 ovarian
BT-549 breast = tested on: BT-549 breast
SK-MEL-28 melanoma = tested on: SK-MEL-28 melanoma
NCI-H460 lung = tested on: NCI-H460 lung
SN12C renal = tested on: SN12C renal
HCT-116 colon = tested on: HCT-116 colon
IGROV1 ovarian = tested on: IGROV1 ovarian
OVCAR-5 ovarian = tested on: OVCAR-5 ovarian
UACC-257 melanoma = tested on: UACC-257 melanoma
SW-620 colon = tested on: SW-620 colon
MOLT-4 leukemia = tested on: MOLT-4 leukemia
COLO 205 colon = tested on: COLO 205 colon
HL-60(TB) leukemia = tested on: HL-60(TB) leukemia
PC-3 prostate = tested on: PC-3 prostate
HOP-62 NSCLC = tested on: HOP-62 NSCLC
HCT-15 colon = tested on: HCT-15 colon
786-0 renal = tested on: 786-0 renal
NCI-H226 lung = tested on: NCI-H226 lung
HS 578T breast = tested on: HS 578T breast
SR leukemia = tested on: SR leukemia
LOX IMVI melanoma = tested on: LOX IMVI melanoma
CCRF-CEM leukemia = tested on: CCRF-CEM leukemia

## O=C(CCCCCCNC(=O)C(O)(O)C(F)(F)F)Nc1nc2ccccc2s1
SK-MEL-5 melanoma
  GI50: 4.08 µM
  TGI: 8.13 µM
K-562 leukemia
  GI50: 1.7 µM
  TGI: > 29.8 µM
CAKI-1 renal
  GI50: 6.99 µM
  TGI: > 29.8 µM
UACC-62 melanoma
  GI50: 1.61 µM
  TGI: 6.76 µM
U251 CNS
  GI50: 4.32 µM
  TGI: 25.5 µM
HCC-2998 colon
  GI50: 5.75 µM
  TGI: 16.8 µM
SNB-75 CNS
  GI50: 1.67 µM
  TGI: > 29.8 µM
OVCAR-8 ovarian
  GI50: 2.86 µM
  TGI: > 29.8 µM
BT-549 breast
  GI50: 7.06 µM
  TGI: > 29.8 µM
SK-MEL-28 melanoma
  GI50: 3.76 µM
  TGI: > 29.8 µM
NCI-H460 lung
  GI50: 2.98 µM
  TGI: > 29.8 µM
SN12C renal
  GI50: 6.39 µM
  TGI: > 29.8 µM
HCT-116 colon
  GI50: 1.23 µM
  TGI: > 29.8 µM
IGROV1 ovarian
  GI50: 4.87 µM
  TGI: 16.4 µM
OVCAR-5 ovarian
  GI50: 2.33 µM
  TGI: 15 µM
UACC-257 melanoma
  GI50: 6.56 µM
  TGI: > 29.8 µM
SW-620 colon
  GI50: 2.08 µM
  TGI: 11 µM
MOLT-4 leukemia
  GI50: 1.21 µM
  TGI: > 29.8 µM
COLO 205 colon
  GI50: 3.17 µM
  TGI: 9.45 µM
HL-60(TB) leukemia
  GI50: 1.85 µM
  TGI: > 29.8 µM
PC-3 prostate
  GI50: 5.01 µM
  TGI: > 29.8 µM
HOP-62 NSCLC
  GI50: 4.29 µM
  TGI: > 29.8 µM
HCT-15 colon
  GI50: 5.8 µM
  TGI: 19.1 µM
786-0 renal
  GI50: 6.4 µM
  TGI: > 29.8 µM
NCI-H226 lung
  GI50: 9.61 µM
  TGI: > 29.8 µM
HS 578T breast
  GI50: 3.57 µM
  TGI: > 29.8 µM
SR leukemia
  GI50: 1.23 µM
  TGI: > 29.8 µM
LOX IMVI melanoma
  GI50: 3.41 µM
  TGI: 7.75 µM
CCRF-CEM leukemia
  GI50: 2.01 µM
